Measured values published in ChEMBL document CHEMBL1201862, “PubChem BioAssay data set” (2004).
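1) Cells in 96-well plates. 2) Compound, 48 h, 5 concentrations. 3) Linear interpolation between surrounding doses. 4) Unreached endpoint = highest concentration. At the GI50, growth is halved.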 Activity calls are given as the source filed them. Rule as the data show it: active = GI50 up to about 1.1 µM and inactive = higher.

Columns and labels:
Assay in all cases: NCI-60 cell line screen, 48 h
UACC-62 = system: UACC-62
OVCAR-8 = system: OVCAR-8
MOLT-4 = system: MOLT-4
KM12 = system: KM12
LOX IMVI = system: LOX IMVI
A498 = system: A498
UO-31 = system: UO-31
MDA-N = system: MDA-N
MDA-MB-231 = system: MDA-MB-231
HOP-62 = system: HOP-62
K562 = system: K562
PC-3 = system: PC-3
ACHN = system: ACHN
OVCAR-4 = system: OVCAR-4
UACC-257 = system: UACC-257
COLO 205 = system: COLO 205
MCF7 = system: MCF7
BT-549 = system: BT-549
M14 = system: M14
OVCAR-3 = system: OVCAR-3
SW-620 = system: SW-620
NCI-H522 = system: NCI-H522
MDA-MB-435 = system: MDA-MB-435
HOP-92 = system: HOP-92
RPMI-8226 = system: RPMI-8226
SK-MEL-2 = system: SK-MEL-2
SN12C = system: SN12C
HT-29 = system: HT-29
786-0 = system: 786-0
SNB-19 = system: SNB-19
EKVX = system: EKVX
OVCAR-5 = system: OVCAR-5
SF-268 = system: SF-268
U-251 = system: U-251
SK-MEL-5 = system: SK-MEL-5
CAKI-1 = system: CAKI-1
HCT-15 = system: HCT-15
NCI-H226 = system: NCI-H226
Hs-578T = system: Hs-578T
HCT-116 = system: HCT-116
DU-145 = system: DU-145
SF-295 = system: SF-295
NCI-H460 = system: NCI-H460
SK-MEL-28 = system: SK-MEL-28
A549 = system: A549
NCI/ADR-RES = system: NCI/ADR-RES
TK-10 = system: TK-10
Malme-3M = system: Malme-3M
T47D = system: T47D
SR = system: SR
IGROV-1 = system: IGROV-1
HCC 2998 = system: HCC 2998
NCI-H23 = system: NCI-H23
SNB-75 = system: SNB-75
CCRF-CEM = system: CCRF-CEM
HL-60 = system: HL-60
SF-539 = system: SF-539
SK-OV-3 = system: SK-OV-3

Nc1nc(O)c2c(n1)NCN(c1ccc(S(N)(=O)=O)cc1)C2
GI50 (UACC-62): > 100 µM (inactive)
GI50 (OVCAR-8): > 100 µM (inactive)
GI50 (MOLT-4): > 100 µM (inactive)
GI50 (KM12): > 100 µM (inactive)
GI50 (LOX IMVI): > 100 µM (inactive)
GI50 (A498): > 100 µM (inactive)
GI50 (UO-31): > 100 µM (inactive)
GI50 (MDA-N): > 100 µM (inactive)
GI50 (MDA-MB-231): > 100 µM (inactive)
GI50 (HOP-62): 71 µM (inactive)
GI50 (K562): > 100 µM (inactive)
GI50 (PC-3): > 100 µM (inactive)
GI50 (ACHN): > 100 µM (inactive)
GI50 (OVCAR-4): > 100 µM (inactive)
GI50 (UACC-257): > 100 µM (inactive)
GI50 (COLO 205): > 100 µM (inactive)
GI50 (MCF7): > 100 µM (inactive)
GI50 (BT-549): > 100 µM (inactive)
GI50 (M14): > 100 µM (inactive)
GI50 (OVCAR-3): > 100 µM (inactive)
GI50 (SW-620): > 100 µM (inactive)
GI50 (NCI-H522): > 100 µM (inactive)
GI50 (MDA-MB-435): > 100 µM (inactive)
GI50 (HOP-92): > 100 µM (inactive)
GI50 (RPMI-8226): > 100 µM (inactive)
GI50 (SK-MEL-2): > 100 µM (inactive)
GI50 (SN12C): > 100 µM (inactive)
GI50 (HT-29): > 100 µM (inactive)
GI50 (786-0): > 100 µM (inactive)
GI50 (SNB-19): > 100 µM (inactive)
GI50 (EKVX): > 100 µM (inactive)
GI50 (OVCAR-5): > 100 µM (inactive)
GI50 (SF-268): > 100 µM (inactive)
GI50 (U-251): > 100 µM (inactive)
GI50 (SK-MEL-5): > 100 µM (inactive)
GI50 (CAKI-1): > 100 µM (inactive)
GI50 (HCT-15): > 100 µM
GI50 (NCI-H226): > 100 µM (inactive)
GI50 (Hs-578T): > 100 µM (inactive)
GI50 (HCT-116): > 100 µM (inactive)
GI50 (DU-145): > 100 µM (inactive)
GI50 (SF-295): 85.9 µM (inactive)
GI50 (NCI-H460): > 100 µM (inactive)
GI50 (SK-MEL-28): > 100 µM (inactive)
GI50 (A549): > 100 µM (inactive)
GI50 (NCI/ADR-RES): > 100 µM (inactive)
GI50 (TK-10): > 100 µM (inactive)
GI50 (Malme-3M): > 100 µM (inactive)
GI50 (T47D): > 100 µM (inactive)
GI50 (SR): > 100 µM (inactive)
GI50 (IGROV-1): > 100 µM (inactive)

Cc1nc(N)c(N2CCNCC2)c(O)n1
GI50 (OVCAR-8): > 100 µM (inactive)
GI50 (MOLT-4): > 100 µM (inactive)
GI50 (KM12): > 100 µM (inactive)
GI50 (HCC 2998): > 100 µM (inactive)
GI50 (LOX IMVI): > 100 µM (inactive)
GI50 (A498): > 100 µM (inactive)
GI50 (UO-31): > 100 µM (inactive)
GI50 (MDA-N): > 100 µM (inactive)
GI50 (MDA-MB-231): > 100 µM (inactive)
GI50 (HOP-62): > 100 µM (inactive)
GI50 (NCI-H23): > 100 µM (inactive)
GI50 (K562): > 100 µM (inactive)
GI50 (PC-3): > 100 µM (inactive)
GI50 (ACHN): > 100 µM (inactive)
GI50 (UACC-257): > 100 µM (inactive)
GI50 (COLO 205): > 100 µM (inactive)
GI50 (MCF7): > 100 µM (inactive)
GI50 (BT-549): > 100 µM (inactive)
GI50 (M14): > 100 µM (inactive)
GI50 (SNB-75): > 100 µM (inactive)
GI50 (OVCAR-3): 76.7 µM (inactive)
GI50 (CCRF-CEM): > 100 µM (inactive)
GI50 (SW-620): > 100 µM (inactive)
GI50 (NCI-H522): > 100 µM (inactive)
GI50 (MDA-MB-435): > 100 µM (inactive)
GI50 (HOP-92): > 100 µM (inactive)
GI50 (RPMI-8226): > 100 µM (inactive)
GI50 (HL-60): > 100 µM (inactive)
GI50 (SK-MEL-2): > 100 µM (inactive)
GI50 (SN12C): > 100 µM (inactive)
GI50 (HT-29): > 100 µM (inactive)
GI50 (786-0): > 100 µM (inactive)
GI50 (SNB-19): > 100 µM (inactive)
GI50 (EKVX): > 100 µM (inactive)
GI50 (OVCAR-5): > 100 µM (inactive)
GI50 (SF-268): > 100 µM (inactive)
GI50 (U-251): > 100 µM (inactive)
GI50 (HCT-15): > 100 µM
GI50 (NCI-H226): > 100 µM (inactive)
GI50 (Hs-578T): > 100 µM (inactive)
GI50 (HCT-116): > 100 µM (inactive)
GI50 (DU-145): > 100 µM (inactive)
GI50 (SF-295): > 100 µM (inactive)
GI50 (NCI-H460): > 100 µM (inactive)
GI50 (SK-MEL-28): > 100 µM (inactive)
GI50 (A549): > 100 µM (inactive)
GI50 (NCI/ADR-RES): > 100 µM (inactive)
GI50 (SF-539): > 100 µM (inactive)
GI50 (TK-10): > 100 µM (inactive)
GI50 (Malme-3M): > 100 µM (inactive)
GI50 (T47D): > 100 µM (inactive)
GI50 (SR): > 100 µM (inactive)

O=C1/C(=C/c2ccc(Cl)cc2)CCC/C1=C\c1ccc(O)c(CN2CCCCC2)c1
GI50 (UACC-62): 16.1 µM (inactive)
GI50 (OVCAR-8): 14.5 µM (inactive)
GI50 (MOLT-4): 24 µM (inactive)
GI50 (KM12): 4.51 µM (inactive)
GI50 (HCC 2998): 20.2 µM (inactive)
GI50 (LOX IMVI): 13.1 µM (inactive)
GI50 (A498): 14.6 µM (inactive)
GI50 (UO-31): 16.3 µM (inactive)
GI50 (MDA-N): 12.9 µM (inactive)
GI50 (MDA-MB-231): 26.9 µM (inactive)
GI50 (HOP-62): 39 µM (inactive)
GI50 (NCI-H23): 19.1 µM (inactive)
GI50 (K562): 9.29 µM (inactive)
GI50 (SK-OV-3): 24 µM (inactive)
GI50 (PC-3): 8.91 µM (inactive)
GI50 (ACHN): 15.7 µM (inactive)
GI50 (OVCAR-4): 20 µM (inactive)
GI50 (UACC-257): 17.8 µM (inactive)
GI50 (COLO 205): 20.3 µM (inactive)
GI50 (MCF7): 47.1 µM (inactive)
GI50 (BT-549): 11.2 µM (inactive)
GI50 (M14): 20.8 µM (inactive)
GI50 (SNB-75): 19.1 µM (inactive)
GI50 (OVCAR-3): 24.1 µM (inactive)
GI50 (CCRF-CEM): 6.01 µM (inactive)
GI50 (SW-620): 18 µM (inactive)
GI50 (MDA-MB-435): 17 µM (inactive)
GI50 (HOP-92): 18.5 µM (inactive)
GI50 (HL-60): 2.13 µM (inactive)
GI50 (SK-MEL-2): 42.1 µM (inactive)
GI50 (SN12C): 26.6 µM (inactive)
GI50 (HT-29): 3.54 µM (inactive)
GI50 (786-0): 15 µM (inactive)
GI50 (SNB-19): 33 µM (inactive)
GI50 (EKVX): 18.1 µM (inactive)
GI50 (OVCAR-5): 23.8 µM (inactive)
GI50 (U-251): 16.6 µM (inactive)
GI50 (SK-MEL-5): 15.1 µM (inactive)
GI50 (CAKI-1): 18.9 µM (inactive)
GI50 (HCT-15): 12.2 µM
GI50 (NCI-H226): 16.1 µM (inactive)
GI50 (Hs-578T): 15.7 µM (inactive)
GI50 (HCT-116): 8.57 µM (inactive)
GI50 (DU-145): 17.1 µM (inactive)
GI50 (SF-295): 14.2 µM (inactive)
GI50 (NCI-H460): 19.5 µM (inactive)
GI50 (SK-MEL-28): 21 µM (inactive)
GI50 (A549): 27.2 µM (inactive)
GI50 (NCI/ADR-RES): 12.9 µM (inactive)
GI50 (SF-539): 21.8 µM (inactive)
GI50 (TK-10): 29.2 µM (inactive)
GI50 (Malme-3M): 21.4 µM (inactive)
GI50 (T47D): 19.5 µM (inactive)
GI50 (SR): 3.78 µM (inactive)
GI50 (IGROV-1): 15.5 µM (inactive)
